Test results: patent US20220401514A1, “ANTIMICROBIAL, BACTERIOPHAGE-DERIVED POLYPEPTIDES AND THEIR USE AGAINST GRAM-NEGATIVE AND ACID-FAST BACTERIA” (CONTRAFECT CORPORATION, priority 2019, published 2022)
Like-named read-outs stand apart in the source and are kept apart here.

How the values were obtained:
[1] = Stability assessment in 100% CAA; format: in vitro ADME; set-up: unit not given beside the values
Description: Stability was assessed after incubation in 100% human serum at 37° C. after 10 minutes, 1 hour, and 2 hours.
Stability assessment was further conducted in 100% CAA and rabbit serum using the same methodology discussed above.

M. smegmatis = assay: 45 hr MIC against M. smegmatis (NTM), Mueller Hinton broth; format: cell-based, Mycobacterium smegmatis; conditions: M. smegmatis MC^2 155, Run #1
[2] = tested on: P. aeruginosa strain CFS-1292; assay: MIC in presence and absence of Survanta pulmonary surfactant; format: cell-based, Pseudomonas aeruginosa
Salmonella typhimurium = assay: MIC against Salmonella typhimurium; format: cell-based
[3] = tested on: carbapenem-resistant bacterial strains; assay: organism not typed; format: cell-based
Description: (§1) Determination of Minimal Inhibitory Concentrations (MIC).

S. maltophilia = assay: MIC against S. maltophilia isolates; format: cell-based, Stenotrophomonas maltophilia; conditions: S. maltophilia isolates (n per peptide in table)
Outline: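 MIC in μg/mL for Chp peptides across several S. maltophilia isolates, n denoting the number of isolates tested.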

[4] = tested on: P. aeruginosa strain CFS-1292; assay: MIC in presence and absence of NaCl (140 mM); format: cell-based, Pseudomonas aeruginosa
Description: Certain Chp peptides were evaluated over a range of physiological NaCl levels and pH values, and were further evaluated for activity in the presence of various divalent cations.

Klebsiella pneumoniae [5] = format: cell-based
Description: as §1
Additional MIC testing was performed for several peptides against the ESKAPE pathogens Escherichia coli, Enterobacter cloacae, Klebsiella pneumoniae, and Acinetobacter baumannii, in CAA supplemented with human serum (Table D).

[6] = tested on: P. aeruginosa strain CFS-1292; assay: MIC in presence of divalent cations (calcium chloride, magnesium sulfate); format: cell-based, Pseudomonas aeruginosa
Description: Next, Chp peptides were evaluated in the presence of different divalent cations. […]; (2) in the presence of 2 mM calcium chloride alone; (3) in the presence of 1 mM magnesium sulfate alone; and (4) in the presence of both 2 mM calcium chloride and 1 mM magnesium sulfate. […]

[7] = tested on: carbapenem-resistant P. aeruginosa clinical isolate CFS-1292; assay: MIC by modified CLSI broth microdilution against P. aeruginosa CFS-1292 (CAA, CAA + human serum); format: cell-based, Pseudomonas aeruginosa; conditions: 100% CAA; 1st run or single value
Acinetobacter baumannii = assay: microbe, parasite or virus in culture; format: cell-based
Pseudomonas aeruginosa = assay: microbe, parasite or virus in culture; format: cell-based; conditions: for MIC: CAA without human serum
Enterobacter cloacae = assay: microbe, parasite or virus in culture; format: cell-based
Outline: (§2)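 Strains are exposed to peptide dilutions in CAA containing human serum, and the minimal inhibitory concentration is recorded.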

Escherichia coli = assay: microbe, parasite or virus in culture; format: cell-based
Outline: as §2

[8] = tested on: P. aeruginosa strain CFS-1292; assay: MIC at pH 6, pH 7 and pH 8; format: cell-based, Pseudomonas aeruginosa
Description: The Chp peptides were further evaluated at varying pH levels. The MIC values were determined at pH 6, pH 7, and pH 8 for 18 different Chp peptides against P. aeruginosa strain CFS-1292. […]

Klebsiella pneumoniae [9] = assay: microbe, parasite or virus in culture; format: cell-based; conditions: CAA without human serum
[10] = K. pneumoniae isolates (n per peptide in table)
[11] = A. baumannii isolates (n per peptide in table)
[12] = P. aeruginosa isolates (n per peptide in table)
[13] = E. cloacae isolates (n per peptide in table)
[14] = E. coli isolates (n per peptide in table)

MARSRRRMSKRSSRRSFRKYAKTHKRNFKARSMRGGIRL [Ecp1]
1 µg/mL: MIC ([3]; carbapenem-resistant isolate PA19) | MIC50 (Klebsiella pneumoniae [5]; [10]) | MIC ([6]; CAA media + 2 mM CaCl2) | MIC ([6]; CAA media + + 1 mM MgSO4) | MIC100 (Acinetobacter baumannii; [11]) | MIC (Acinetobacter baumannii; Acinetobacter baumannii ATCC BAA 747, CAA supplemented with human serum) | MIC (Pseudomonas aeruginosa; P. aeruginosa (ATCC 15152, abscess in middle ear), RSC 1110) | MIC (Pseudomonas aeruginosa; P. aeruginosa (ATCC 19142, tracheobronchial secretion), RSC 1108) | MIC ([8]; pH 6) | MIC ([8]; pH 7) | MIC ([8]; pH 8)
1 to 2 µg/mL: MIC Range (Klebsiella pneumoniae [5]; [10])
0.125 to 2 µg/mL: MIC Range (Acinetobacter baumannii; [11])
2 µg/mL: MIC (Salmonella typhimurium; Salmonella typhimurium) | MIC (Salmonella typhimurium; Salmonella typhimurium LT2 (lab isolate), RSC 27, CAA without human serum) | MIC ([3]; carbapenem-resistant isolate WLC-452) | MIC, CAA + 140 mM NaCl ([4]; CAA + 140 mM NaCl, P. aeruginosa CFS-1292) | MIC100 (Klebsiella pneumoniae [5]; [10]) | MIC (Acinetobacter baumannii; Acinetobacter baumannii (clinical isolate HSS), RSC 30, CAA without human serum) | MIC (Acinetobacter baumannii; Acinetobacter baumannii (clinical isolate HSS), RSC 32, CAA without human serum) | MIC (Pseudomonas aeruginosa; P. aeruginosa 453 (Human clinical isolate, HSS), RSC 1292) | MIC (Pseudomonas aeruginosa; P. aeruginosa (ATCC 14213, human hip wound), RSC 1111) | MIC (Pseudomonas aeruginosa; P. aeruginosa (ATCC 15692, infected wound), RSC 489) | MIC (Pseudomonas aeruginosa; P. aeruginosa (ATCC 15692, infected wound), RSC 1115) | MIC (Pseudomonas aeruginosa; P. aeruginosa (ATCC 17646, human liver abscess), RSC 1109) | MIC (Pseudomonas aeruginosa; P. aeruginosa (ATCC 25102, bacteriophage host), RSC 1114) | MIC (Pseudomonas aeruginosa; P. aeruginosa (ATCC 27853, MIC control strain), RSC 815) | MIC (Pseudomonas aeruginosa; P. aeruginosa (PAO1, alternate source, HER1018), RSC 490) | MIC100 (Enterobacter cloacae; [13]) | MIC (Enterobacter cloacae; Enterobacter cloacae (ATCC 13047, MIC control strain), RSC 1240, CAA without human serum) | MIC (Escherichia coli; E. coli (ATCC 25922, MIC control strain), RSC 813, CAA without human serum) | MIC (Escherichia coli; E. coli (HM346, colon, Crohn's disease), RSC 1212, CAA without human serum) | MIC100 (Escherichia coli; [14]) | MIC (Klebsiella pneumoniae [9]; Klebsiella pneumoniae (ATCC 10031, MIC control strain), RSC 814) | MIC (Klebsiella pneumoniae [9]; Klebsiella pneumoniae (g2-3 HM35K), RSC 1138) | MIC (Klebsiella pneumoniae [9]; Klebsiella sp. (HM-44; colon, Crohn's disease), RSC 1139) | MIC (Klebsiella pneumoniae [9]; Klebsiella spp. (HM-223; gut of Crohn's disease patient), RSC 1131)
16 µg/mL: MIC (Enterobacter cloacae; Enterobacter cloacae ATCC 13047, CAA supplemented with human serum)
4 µg/mL: 45 hr MIC (M. smegmatis) | MIC ([3]; carbapenem-resistant isolate PA23) | MIC ([3]; carbapenem-resistant isolate PA24) | MIC (Pseudomonas aeruginosa; P. aeruginosa (ATCC BAA-27, lab strain), RSC 1113) | MIC50 (Pseudomonas aeruginosa; [12])
0.25 µg/mL: MIC (Escherichia coli; Escherichia coli ATCC 25922, CAA supplemented with human serum)
0.5 µg/mL: MIC ([2]; CAA media + 0.19 mg/mL Survanta) | MIC ([2]; CAA media + […] Survanta) | MIC ([2]; CAA media alone) | MIC, CAA (no added NaCl) ([4]; CAA, no added NaCl, P. aeruginosa CFS-1292) | MIC (Klebsiella pneumoniae [5]; Klebsiella pneumoniae HM-44, CAA supplemented with human serum) | MIC ([6]; CAA media + 1 mM MgSO4) | MIC ([6]; CAA media alone) | MIC (μg/mL) against CFS-1292 in 100% CAA (1st run/2nd run) [7] | MIC50 (Acinetobacter baumannii; [11]) | MIC50 (Enterobacter cloacae; [13]) | MIC50 (Escherichia coli; [14]) | MIC ([8]; CAA media (pH 7))
8 µg/mL: MIC ([3]; carbapenem-resistant isolate PA22) | MIC50 (S. maltophilia)
>8 µg/mL: MIC ([3]; carbapenem-resistant isolate PA20) | MIC ([3]; carbapenem-resistant isolate PA21) | MIC100 (S. maltophilia) | MIC100 (Pseudomonas aeruginosa; [12])
4: Fold change in MIC ([4]; CAA + 140 mM NaCl versus CAA without added NaCl)
0.25 to 4 µg/mL: MIC Range (Enterobacter cloacae; [13]) | MIC Range (Escherichia coli; [14])
0.25: MIC (100% CAA) [1]
